Test results as given in ChEMBL document CHEMBL2177025, “Chemical proteomics-based analysis of off-target binding profiles for rosiglitazone and pioglitazone: clues for assessing potential for cardiotoxicity” (J Med Chem, 2012).
Activity calls are given as the source filed them. The rule behind the calls is not given here.

Legend:
[1] = molecular target: T1, Cardiotrophin-like cytokine factor 1 (Mus musculus) (UniProt Q9QZM3); experiment: Binding affinity to mouse cardiotrophin-like cytokine factor 1 by chromatographic analysis
T1 sequence (whole entry): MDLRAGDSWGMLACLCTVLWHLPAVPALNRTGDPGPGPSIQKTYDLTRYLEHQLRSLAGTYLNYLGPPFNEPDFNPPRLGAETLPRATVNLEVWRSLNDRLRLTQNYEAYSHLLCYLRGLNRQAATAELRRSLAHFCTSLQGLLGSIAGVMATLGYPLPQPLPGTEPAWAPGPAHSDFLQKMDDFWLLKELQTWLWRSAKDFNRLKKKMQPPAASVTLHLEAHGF

[2] = molecular target: Voltage-dependent L-type calcium channel subunit alpha-1F (Mus musculus) (UniProt Q9JIS7); experiment: Binding affinity to mouse voltage-dependent L-type calcium channel alpha-1F subunit by chromatographic analysis
[3] = molecular target: Trace amine-associated receptor 7b (Mus musculus) (UniProt Q5QD11); experiment: Binding affinity to mouse trace amine-associated receptor 7b by chromatographic analysis
[4] = molecular target: Sodium-dependent multivitamin transporter (Rattus norvegicus) (UniProt O70247); experiment: Binding affinity to sodium-dependent multivitamin transporter in Sprague-Dawley rat heart homogenate after 15 mins by chromatographic analysis; assay type: tissue-based
[5] = molecular target: Cyclic AMP-dependent transcription factor ATF-2 (Mus musculus) (UniProt P16951); experiment: Binding affinity to mouse cyclic AMP-dependent transcription factor ATF-2 by chromatographic analysis
[6] = molecular target: Citrate synthase, mitochondrial (Mus musculus) (UniProt Q9CZU6); experiment: Binding affinity to mouse mitochondrial citrate synthase by chromatographic analysis relative to rosiglitazone
[7] = molecular target: Creatine kinase M-type (Rattus norvegicus) (UniProt P00564); experiment: Binding affinity to creatine kinase M-type in Sprague-Dawley rat heart homogenate after 15 mins by chromatographic analysis relative to rosiglitazone; assay type: tissue-based
[8] = molecular target: Triosephosphate isomerase (Rattus norvegicus) (UniProt P48500); experiment: Binding affinity to triosephosphate isomerase in Sprague-Dawley rat heart homogenate after 15 mins by chromatographic analysis relative to rosiglitazone; assay type: tissue-based
[9] = molecular target: Neurofibromin (Mus musculus) (UniProt Q04690); experiment: Binding affinity to mouse neurofibromin by chromatographic analysis relative to pioglitazone
[10] = molecular target: Hemopexin (Rattus norvegicus) (UniProt P20059); experiment: Binding affinity to hemopexin precursor in Sprague-Dawley rat heart homogenate after 15 mins by chromatographic analysis; assay type: tissue-based
[11] = molecular target: Creatine kinase B-type (Rattus norvegicus) (UniProt P07335); experiment: Binding affinity to creatine kinase B-type in Sprague-Dawley rat heart homogenate after 15 mins by chromatographic analysis; assay type: tissue-based
[12] = molecular target: Trace amine-associated receptor 7b (Rattus norvegicus) (UniProt Q923X8); experiment: Binding affinity to trace amine-associated receptor 7b in Sprague-Dawley rat heart homogenate after 15 mins by chromatographic analysis; assay type: tissue-based
[13] = molecular target: Interleukin-12 subunit beta (Mus musculus) (UniProt P43432); experiment: Binding affinity to mouse interleukin-12 beta chain precursor by chromatographic analysis
[14] = molecular target: Aspartate aminotransferase, mitochondrial (Rattus norvegicus) (UniProt P00507); experiment: Binding affinity to mitochondrial aspartate aminotransferase in Sprague-Dawley rat heart homogenate after 15 mins by chromatographic analysis; assay type: tissue-based
[15] = molecular target: Phosphoglycerate kinase 1 (Rattus norvegicus) (UniProt P16617); experiment: Binding affinity to Phosphoglycerate kinase 1 in Sprague-Dawley rat heart homogenate after 15 mins by chromatographic analysis; assay type: tissue-based
[16] = molecular target: 2-oxoglutarate dehydrogenase complex component E1 (Mus musculus) (UniProt Q60597); experiment: Binding affinity to mouse mitochondrial 2-oxoglutarate dehydrogenase E1 component by chromatographic analysis
[17] = molecular target: Septin-9 (Rattus norvegicus) (UniProt Q9QZR6); experiment: Binding affinity to septin-9 in Sprague-Dawley rat heart homogenate after 15 mins by chromatographic analysis relative to pioglitazone; assay type: tissue-based
[18] = molecular target: T1, Cardiotrophin-like cytokine factor 1 (Mus musculus); experiment: Binding affinity to mouse cardiotrophin-like cytokine factor 1 precursor by chromatographic analysis relative to pioglitazone
[19] = molecular target: Fanconi anemia group M protein homolog (Mus musculus) (UniProt Q8BGE5); experiment: Binding affinity to mouse Fanconi anemia group M protein homologue by chromatographic analysis relative to pioglitazone
[20] = molecular target: Selenocysteine insertion sequence-binding protein 2 (Rattus norvegicus) (UniProt Q9QX72); experiment: Binding affinity to SECIS-binding protein 2 in Sprague-Dawley rat heart homogenate after 15 mins by chromatographic analysis relative to pioglitazone; assay type: tissue-based
[21] = molecular target: Rab11 family-interacting protein 4 (Mus musculus) (UniProt Q8BQP8); experiment: Binding affinity to mouse Rab11 family interacting protein 4 by chromatographic analysis relative to pioglitazone
[22] = molecular target: Prolactin-3B1 (Rattus norvegicus) (UniProt P09321); experiment: Binding affinity to chorionic somatomammotropin hormone 2 precursor in Sprague-Dawley rat heart homogenate after 15 mins by chromatographic analysis relative to pioglitazone; assay type: tissue-based
[23] = molecular target: Cyclin-dependent kinase 7 (Mus musculus) (UniProt Q03147); experiment: Binding affinity to mouse cell division protein kinase 7 by chromatographic analysis
[24] = molecular target: Hepatocyte nuclear factor 6 (Mus musculus) (UniProt O08755); experiment: Binding affinity to mouse hepatocyte nuclear factor 6 by chromatographic analysis
[25] = molecular target: Kinesin light chain 1 (Rattus norvegicus) (UniProt P37285); experiment: Binding affinity to Kinesin light chain 1 in Sprague-Dawley rat heart homogenate after 15 mins by chromatographic analysis; assay type: tissue-based
[26] = molecular target: Malate dehydrogenase, cytoplasmic (Mus musculus) (UniProt P14152); experiment: Binding affinity to mouse cytoplasmic malate dehydrogenase by chromatographic analysis
[27] = molecular target: Malate dehydrogenase, mitochondrial (Rattus norvegicus) (UniProt P04636); experiment: Binding affinity to mitochondrial malate dehydrogenase in Sprague-Dawley rat heart homogenate after 15 mins by chromatographic analysis; assay type: tissue-based

Chain of Voltage-dependent L-type calcium channel subunit alpha-1F (Mus musculus) (Q9JIS7 whole entry): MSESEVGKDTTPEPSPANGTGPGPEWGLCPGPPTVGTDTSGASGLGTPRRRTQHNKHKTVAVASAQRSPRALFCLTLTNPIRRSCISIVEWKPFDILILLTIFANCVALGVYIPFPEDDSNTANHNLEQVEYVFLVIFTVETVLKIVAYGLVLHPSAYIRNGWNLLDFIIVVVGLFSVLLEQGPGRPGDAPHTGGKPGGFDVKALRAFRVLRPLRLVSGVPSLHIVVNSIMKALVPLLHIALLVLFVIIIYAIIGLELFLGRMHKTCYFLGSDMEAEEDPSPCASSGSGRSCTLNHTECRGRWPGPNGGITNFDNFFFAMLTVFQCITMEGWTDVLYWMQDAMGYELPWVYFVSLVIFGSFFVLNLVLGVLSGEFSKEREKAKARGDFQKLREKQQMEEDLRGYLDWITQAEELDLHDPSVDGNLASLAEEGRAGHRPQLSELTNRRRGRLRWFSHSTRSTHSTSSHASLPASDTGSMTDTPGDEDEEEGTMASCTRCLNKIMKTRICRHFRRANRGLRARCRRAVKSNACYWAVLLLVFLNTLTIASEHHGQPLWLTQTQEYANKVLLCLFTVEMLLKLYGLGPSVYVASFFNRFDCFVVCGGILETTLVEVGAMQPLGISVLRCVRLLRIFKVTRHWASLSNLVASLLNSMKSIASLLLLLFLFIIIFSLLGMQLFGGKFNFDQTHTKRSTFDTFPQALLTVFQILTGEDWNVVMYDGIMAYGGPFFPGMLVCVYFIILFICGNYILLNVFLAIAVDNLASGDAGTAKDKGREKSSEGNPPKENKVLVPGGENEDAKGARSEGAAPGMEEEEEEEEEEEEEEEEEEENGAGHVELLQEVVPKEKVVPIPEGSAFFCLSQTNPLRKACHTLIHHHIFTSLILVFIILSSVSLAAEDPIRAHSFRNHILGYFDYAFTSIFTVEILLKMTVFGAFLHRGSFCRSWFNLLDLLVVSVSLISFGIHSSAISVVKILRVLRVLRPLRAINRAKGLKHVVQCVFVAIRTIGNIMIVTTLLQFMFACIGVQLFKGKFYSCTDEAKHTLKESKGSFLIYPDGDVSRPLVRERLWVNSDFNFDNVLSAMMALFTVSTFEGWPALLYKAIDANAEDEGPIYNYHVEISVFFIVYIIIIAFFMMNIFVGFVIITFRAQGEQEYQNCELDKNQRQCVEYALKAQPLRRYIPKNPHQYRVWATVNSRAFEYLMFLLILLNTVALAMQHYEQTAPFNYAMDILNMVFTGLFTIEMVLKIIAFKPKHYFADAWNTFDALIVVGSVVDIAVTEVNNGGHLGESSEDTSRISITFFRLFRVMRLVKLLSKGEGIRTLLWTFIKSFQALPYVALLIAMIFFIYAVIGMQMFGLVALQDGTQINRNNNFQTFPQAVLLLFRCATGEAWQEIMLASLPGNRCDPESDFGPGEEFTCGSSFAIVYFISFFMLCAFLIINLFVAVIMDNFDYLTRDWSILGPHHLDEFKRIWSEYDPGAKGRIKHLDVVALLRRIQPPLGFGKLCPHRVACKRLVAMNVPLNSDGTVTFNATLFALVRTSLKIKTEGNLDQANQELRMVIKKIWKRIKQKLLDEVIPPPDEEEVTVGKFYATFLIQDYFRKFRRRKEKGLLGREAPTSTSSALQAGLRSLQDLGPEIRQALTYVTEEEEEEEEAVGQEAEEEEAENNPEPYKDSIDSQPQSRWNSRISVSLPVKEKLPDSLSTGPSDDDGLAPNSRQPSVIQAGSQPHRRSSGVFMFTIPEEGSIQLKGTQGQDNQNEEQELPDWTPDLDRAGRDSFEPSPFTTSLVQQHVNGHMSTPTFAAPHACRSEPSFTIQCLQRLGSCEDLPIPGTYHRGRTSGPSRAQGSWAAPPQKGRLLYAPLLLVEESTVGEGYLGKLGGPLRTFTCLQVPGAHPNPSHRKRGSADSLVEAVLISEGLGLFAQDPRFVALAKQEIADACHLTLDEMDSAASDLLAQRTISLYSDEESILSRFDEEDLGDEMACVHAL
Chain of Sodium-dependent multivitamin transporter (Rattus norvegicus) (O70247 whole entry): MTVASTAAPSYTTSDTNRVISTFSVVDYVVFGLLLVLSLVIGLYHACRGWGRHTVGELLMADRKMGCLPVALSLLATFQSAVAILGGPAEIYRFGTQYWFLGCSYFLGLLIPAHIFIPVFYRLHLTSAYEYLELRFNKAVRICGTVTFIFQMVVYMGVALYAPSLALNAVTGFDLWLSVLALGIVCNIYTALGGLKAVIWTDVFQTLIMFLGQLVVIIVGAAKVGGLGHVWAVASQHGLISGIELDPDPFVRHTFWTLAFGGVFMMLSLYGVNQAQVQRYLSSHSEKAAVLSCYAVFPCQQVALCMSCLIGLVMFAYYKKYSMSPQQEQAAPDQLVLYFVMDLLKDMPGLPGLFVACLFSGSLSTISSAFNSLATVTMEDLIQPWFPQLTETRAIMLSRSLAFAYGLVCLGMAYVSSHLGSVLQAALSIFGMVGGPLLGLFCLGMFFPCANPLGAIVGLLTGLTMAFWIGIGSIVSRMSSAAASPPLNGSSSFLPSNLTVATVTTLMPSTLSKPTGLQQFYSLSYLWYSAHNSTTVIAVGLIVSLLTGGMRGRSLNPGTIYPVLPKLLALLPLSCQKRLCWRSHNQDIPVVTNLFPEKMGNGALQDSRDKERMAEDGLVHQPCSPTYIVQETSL
Chain of Trace amine-associated receptor 7b (Mus musculus) (Q5QD11 whole entry): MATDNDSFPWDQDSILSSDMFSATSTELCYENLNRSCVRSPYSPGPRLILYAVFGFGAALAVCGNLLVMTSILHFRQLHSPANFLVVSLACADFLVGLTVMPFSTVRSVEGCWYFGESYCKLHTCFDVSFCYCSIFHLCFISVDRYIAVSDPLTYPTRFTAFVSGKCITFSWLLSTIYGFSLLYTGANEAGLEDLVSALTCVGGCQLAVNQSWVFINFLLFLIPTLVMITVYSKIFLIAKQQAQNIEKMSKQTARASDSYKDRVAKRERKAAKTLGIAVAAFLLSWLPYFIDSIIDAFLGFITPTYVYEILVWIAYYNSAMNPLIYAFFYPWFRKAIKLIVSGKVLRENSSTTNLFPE
Chain of Rab11 family-interacting protein 4 (Mus musculus) (Q8BQP8 whole entry): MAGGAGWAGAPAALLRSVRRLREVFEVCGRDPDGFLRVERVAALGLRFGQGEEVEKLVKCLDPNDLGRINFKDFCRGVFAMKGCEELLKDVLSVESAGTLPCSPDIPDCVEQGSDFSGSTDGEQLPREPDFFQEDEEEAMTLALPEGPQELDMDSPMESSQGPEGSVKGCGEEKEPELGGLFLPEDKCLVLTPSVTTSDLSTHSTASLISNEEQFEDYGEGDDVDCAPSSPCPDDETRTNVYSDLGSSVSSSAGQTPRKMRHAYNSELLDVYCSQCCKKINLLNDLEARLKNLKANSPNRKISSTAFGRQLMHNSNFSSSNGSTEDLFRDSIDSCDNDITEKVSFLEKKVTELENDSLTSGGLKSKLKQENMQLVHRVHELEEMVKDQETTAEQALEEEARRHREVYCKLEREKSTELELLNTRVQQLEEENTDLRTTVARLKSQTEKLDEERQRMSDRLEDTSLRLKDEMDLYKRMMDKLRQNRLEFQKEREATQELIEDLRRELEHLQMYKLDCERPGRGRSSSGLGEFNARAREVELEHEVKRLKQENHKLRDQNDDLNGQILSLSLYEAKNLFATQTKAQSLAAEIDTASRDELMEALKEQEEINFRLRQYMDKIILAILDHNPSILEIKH
Chain of Citrate synthase, mitochondrial (Mus musculus) (Q9CZU6 whole entry): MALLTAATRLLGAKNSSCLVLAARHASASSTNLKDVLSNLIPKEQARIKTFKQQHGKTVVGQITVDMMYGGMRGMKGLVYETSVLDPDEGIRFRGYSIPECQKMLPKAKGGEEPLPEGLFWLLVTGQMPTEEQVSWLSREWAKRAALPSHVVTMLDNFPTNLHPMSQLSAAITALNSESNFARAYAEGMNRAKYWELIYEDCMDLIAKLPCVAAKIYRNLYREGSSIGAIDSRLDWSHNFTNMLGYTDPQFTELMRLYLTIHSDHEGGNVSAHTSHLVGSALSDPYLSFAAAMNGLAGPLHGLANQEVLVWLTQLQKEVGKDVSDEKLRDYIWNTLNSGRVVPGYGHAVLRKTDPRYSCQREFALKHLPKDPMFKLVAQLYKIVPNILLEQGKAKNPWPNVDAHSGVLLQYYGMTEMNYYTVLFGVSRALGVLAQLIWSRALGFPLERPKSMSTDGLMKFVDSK
Chain of Hemopexin (Rattus norvegicus) (P20059 whole entry): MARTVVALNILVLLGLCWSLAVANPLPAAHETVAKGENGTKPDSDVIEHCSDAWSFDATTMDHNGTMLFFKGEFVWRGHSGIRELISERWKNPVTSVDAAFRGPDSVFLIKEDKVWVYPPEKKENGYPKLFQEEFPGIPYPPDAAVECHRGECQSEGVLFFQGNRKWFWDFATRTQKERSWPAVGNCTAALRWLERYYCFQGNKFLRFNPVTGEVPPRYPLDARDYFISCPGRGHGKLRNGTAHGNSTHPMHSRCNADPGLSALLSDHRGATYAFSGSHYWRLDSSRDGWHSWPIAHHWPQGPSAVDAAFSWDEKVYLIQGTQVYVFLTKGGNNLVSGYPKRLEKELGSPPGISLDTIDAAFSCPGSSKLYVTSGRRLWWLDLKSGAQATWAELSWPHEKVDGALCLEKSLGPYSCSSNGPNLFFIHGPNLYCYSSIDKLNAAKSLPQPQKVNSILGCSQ
Chain of Creatine kinase M-type (Rattus norvegicus) (P00564 whole entry): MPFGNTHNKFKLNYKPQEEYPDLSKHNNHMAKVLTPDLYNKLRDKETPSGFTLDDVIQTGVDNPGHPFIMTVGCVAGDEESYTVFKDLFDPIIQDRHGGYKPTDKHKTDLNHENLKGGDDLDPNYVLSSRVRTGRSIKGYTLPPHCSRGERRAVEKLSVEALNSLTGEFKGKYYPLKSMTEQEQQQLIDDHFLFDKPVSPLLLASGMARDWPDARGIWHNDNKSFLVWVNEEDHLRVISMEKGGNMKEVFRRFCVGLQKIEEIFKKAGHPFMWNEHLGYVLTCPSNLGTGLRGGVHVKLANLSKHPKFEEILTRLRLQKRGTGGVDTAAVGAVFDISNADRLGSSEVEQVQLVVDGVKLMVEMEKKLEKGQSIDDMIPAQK

Q: Which results are given for `CCc1ccc(CCOc2ccc(CC3SC(=O)NC3=O)cc2)nc1` (configuration not stated)?
A: Activity [1]: Active; Activity [2]: Active; Activity [3]: Active; Activity [4]: Active; fold change (FC) [5]: 1.64; fold change (FC) [6]: 5.52; fold change (FC) [7]: 6.16; fold change (FC) [8]: 6.46; Activity [9]: Active; Activity [10]: Active; Activity [11]: Active; Activity [12]: Active; Activity [13]: Active; Activity [14]: Active; Activity [15]: Active; Activity [16]: Active

Q: `CN(CCOc1ccc(CC2SC(=O)NC2=O)cc1)c1ccccn1` (configuration not stated) was tested. Which Activity [1] did it give?
A: Its Activity is “Active”.

Q: What about the Activity [2] of the same compound?
A: The Activity was “Active”.

Q: What about the Activity [3] of the same compound?
A: The Activity was “inactive”.

Q: And the Activity [4]?
A: The Activity was “Active”.

Q: And the fold change (FC) [17]?
A: The fold change (FC) was 2.08.

Q: What about the fold change (FC) [18] of the same compound?
A: Its fold change (FC) is 2.56.

Q: And the fold change (FC) [19]?
A: Its fold change (FC) is 2.94.

Q: And the fold change (FC) [9]?
A: The fold change (FC) was 3.1.

Q: What about the fold change (FC) [20] of the same compound?
A: Its fold change (FC) is 3.22.

Q: What about the fold change (FC) [21] of the same compound?
A: Its fold change (FC) is 3.74.

Q: What about the fold change (FC) [22] of the same compound?
A: Its fold change (FC) is 3.92.

Q: And the Activity [23]?
A: Its Activity is “Active”.

Q: What about the Activity [24] of the same compound?
A: The Activity was “Active”.

Q: What about the Activity [25] of the same compound?
A: The Activity was “Active”.

Q: What about the Activity [26] of the same compound?
A: Its Activity is “Active”.

Q: And the Activity [27]?
A: The Activity was “Active”.
